# In ChEMBL document CHEMBL3393004, “Insights on the role of boron containing moieties in the design of new potent and efficient agonists targeting the β2 adrenoceptor” (Bioorg Med Chem Lett, 2015):
# pEC50, pKd: −log10 of the molar value.
# Assays:
# [1] = molecular target: Beta-2 adrenergic receptor (Cavia porcellus) (UniProt Q8K4Z4); assay: Agonist activity at adrenergic beta2 receptor in Hartley guinea pig tracheal ring assessed as bronchorelaxation activity against histamine-induced contraction relative to isoproterenol; settings: Trachea
# [2] = molecular target: T1, Beta-2 adrenergic receptor (Cavia porcellus, UniProt Q8K4Z4); assay: Agonist activity at adrenergic beta2 receptor in Hartley guinea pig tracheal ring at basal tone assessed as bronchorelaxation activity
# [3] = molecular target: T1, Beta-2 adrenergic receptor; assay: Agonist activity at adrenergic beta2 receptor in Hartley guinea pig tracheal ring assessed as bronchorelaxation activity against histamine-induced contraction; parameters: species or system Trachea
# T1 sequence (Q8K4Z4 whole entry): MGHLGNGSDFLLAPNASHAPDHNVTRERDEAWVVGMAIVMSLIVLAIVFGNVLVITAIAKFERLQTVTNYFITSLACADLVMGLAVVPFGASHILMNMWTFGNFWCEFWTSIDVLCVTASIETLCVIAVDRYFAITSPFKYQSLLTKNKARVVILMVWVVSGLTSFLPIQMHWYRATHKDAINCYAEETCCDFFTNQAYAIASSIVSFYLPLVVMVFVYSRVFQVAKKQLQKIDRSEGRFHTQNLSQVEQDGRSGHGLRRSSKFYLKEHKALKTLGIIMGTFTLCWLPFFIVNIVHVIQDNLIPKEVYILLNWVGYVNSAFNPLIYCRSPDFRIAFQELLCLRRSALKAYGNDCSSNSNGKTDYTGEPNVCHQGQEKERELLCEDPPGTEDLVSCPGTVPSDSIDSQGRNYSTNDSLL
# Chain of Beta-2 adrenergic receptor (Cavia porcellus) (Q8K4Z4 whole entry, looked up): as the sequence (Q8K4Z4 whole entry) above
Efficacy [1] [%],pKd [2],pKd [3],pEC50 [3],Compound
68,,,,CC(C)(C)NCC(O)c1ccc(O)c(CO)c1 (configuration not stated)
,7.60,7.75,,CC(C)NCC(O)c1ccc(O)c(O)c1 (configuration not stated) [ISOPROTERENOL]
94,8.29,7.55,≥ 6.55,CC(C)C[B-]1(O)OCc2cc([C@@H](O)C[NH2+]C(C)(C)C)ccc2O1 (some centres not stated)
